Columns and labels:
[1] = biological target: T1, FGF-1 (flg) receptor tyrosine kinase (FGFr) (Homo sapiens, UniProt P11362); assay: FGF Receptor Tyrosine Kinase Assay; type: biochemical; conditions: glutamate-tyrosine co-polymer substrate; for IC50: read-out: Inhibition of Tyrosine Kinases: IC50 in parenthesis FGFr
T1 construct: amplify a fragment of DNA that codes for the intracellular tyrosine kinase domain; made in house; host or cells: SF9 insect cells (baculovirus); crude cell lysate used
Source text: (§1) PDGF and FGF Receptor Tyrosine Kinase Assays
(§2) Full-length cDNAs for the mouse PDGF-β and human FGF-1 (flg) receptor tyrosine kinases are obtained from J. Escobedo and prepared as described in J. Biol. Chem. 1991; 262:1482-1487. PCR primers are designed to amplify a fragment of DNA that codes for the intracellular tyrosine kinase domain. The fragment is inserted into a baculovirus vector, cotransfected with AcMNPV DNA, and the recombinant virus isolated. SF9 insect cells are infected with the virus to overexpress the protein, and the cell lysate is used for the assay. Assays are performed in 96-well plates (100 μL/incubation/well), and conditions are optimized to measure the incorporation of ^32P from γ^32P-ATP into a glutamate-tyrosine co-polymer substrate. Briefly, to each well is added 82.5 μL of incubation buffer containing 25 mM Hepes (pH 7.0), 150 mM NaCl, 0.1% Triton X-100, 0.2 mM PMSF, 0.2 mM Na3VO4, 10 mM MnCl2, and 750 μg/mL of Poly (4:1) glutamate-tyrosine followed by 2.5 μL of inhibitor and 5 μL of enzyme lysate (7.5 μg/μL FGF-TK or 6.0 μg/μL PDGF-TK) to initiate the reaction. Following a 10-minute incubation at 25° C. […] of γ^32P-ATP (0.4 μCi plus 50 μM ATP) is added to each well, and samples are incubated for an additional 10 minutes at 25° C. The reaction is terminated by the addition of 100 μL of 30% trichloroacetic acid (TCA) containing 20 mM sodium pyrophosphate and precipitation of material onto glass fiber mats (Wallac). Filters are washed 3 times with 15% TCA containing 100 mM sodium pyrophosphate, and the radioactivity retained on the filters counted in a Wallac 1250 Betaplate reader. Nonspecific activity is defined as radioactivity retained on the filters following incubation of samples with buffer alone (no enzyme). Specific enzymatic activity (enzyme plus buffer) is defined as total activity minus nonspecific activity.

cdk4/cyclinD = cdk4/cyclinD (Homo sapiens, UniProt P11802); assay: Cyclin Dependent Kinase 4 (cdk-4) Assay, 32P incorporation, filter plate; type: biochemical; conditions: retinoblastoma substrate, 25 μM ATP, 25° C., 15 minutes; read-out: Inhibition of Cdks: IC50 Cdk4D
Outline: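 Filter-plate radiometric assay for IC50s: 20 ng cdk4 with 1 μg retinoblastoma substrate in 20 mM TRIS pH 7.4, 50 mM NaCl, 1 mM DTT, 10 mM MgCl2. Started with 25 μM ATP plus [32P]ATP and run 15 min at 25° C, then stopped with TCA. Precipitated substrate was washed and 32P incorporation counted.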

cdk1/cyclinB = cdk1/cyclinB (Homo sapiens, UniProt P06493); assay: Cyclin dependent kinase 1 assay (cdk1/cyclinB), 32P incorporation, filter plate; type: biochemical; conditions: retinoblastoma substrate, 12 mM ATP, 25° C., 15 minutes; read-out: Inhibition of Cdks: IC50 Cdk1/B
Outline: (§3)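 Radiometric filter assay: 20 ng cdk1/B, cdk2/A or cdk2/E with 1 μg retinoblastoma substrate in 20 mM Tris pH 7.4, 50 mM NaCl, 1 mM DTT, 10 mM MgCl2, […] plus [32P]ATP. Started with ATP, 15 min at 25 °C, stopped and precipitated with TCA; 32P incorporation counted for IC50.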

cdk2/cyclinA = cdk2/cyclinA (Homo sapiens, UniProt P24941); assay: Cyclin dependent kinase 2 assay (cdk2/cyclinA), 32P incorporation, filter plate; type: biochemical; conditions: retinoblastoma substrate, 12 mM ATP, 25° C., 15 minutes; read-out: Inhibition of Cdks: IC50 Cdk2/A
Outline: as §3

[2] = biological target: T2, PDGF-β receptor tyrosine kinase (PDGFr) (Mus musculus, UniProt P05622); assay: PDGF Receptor Tyrosine Kinase Assay; type: biochemical; conditions: glutamate-tyrosine co-polymer substrate; for IC50: read-out: Inhibition of Tyrosine Kinases: IC50 in parenthesis PDGFr
T2 construct: amplify a fragment of DNA that codes for the intracellular tyrosine kinase domain; made in house; host or cells: SF9 insect cells (baculovirus); crude cell lysate used
Source text: as §1, §2

cdk2/cyclinE = cdk2/cyclinE (Homo sapiens, UniProt P24941); assay: Cyclin dependent kinase 2 assay (cdk2/cyclinE), 32P incorporation, filter plate; type: biochemical; conditions: retinoblastoma substrate, 12 mM ATP, 25° C., 15 minutes; read-out: Inhibition of Cdks: IC50 Cdk2/E
Outline: as §3

cdk4/cyclinD, sequence (P11802 whole entry, species assumed): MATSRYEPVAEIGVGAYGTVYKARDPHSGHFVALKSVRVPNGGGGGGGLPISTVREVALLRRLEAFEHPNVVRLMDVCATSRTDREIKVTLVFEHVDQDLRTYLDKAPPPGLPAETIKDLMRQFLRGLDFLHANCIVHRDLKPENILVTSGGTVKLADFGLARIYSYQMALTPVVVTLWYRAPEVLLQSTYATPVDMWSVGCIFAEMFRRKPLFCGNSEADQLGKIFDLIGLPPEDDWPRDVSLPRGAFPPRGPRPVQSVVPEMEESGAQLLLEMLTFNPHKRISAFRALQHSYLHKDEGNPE
cdk4/cyclinD, sequence (P24385 whole entry partner, species assumed): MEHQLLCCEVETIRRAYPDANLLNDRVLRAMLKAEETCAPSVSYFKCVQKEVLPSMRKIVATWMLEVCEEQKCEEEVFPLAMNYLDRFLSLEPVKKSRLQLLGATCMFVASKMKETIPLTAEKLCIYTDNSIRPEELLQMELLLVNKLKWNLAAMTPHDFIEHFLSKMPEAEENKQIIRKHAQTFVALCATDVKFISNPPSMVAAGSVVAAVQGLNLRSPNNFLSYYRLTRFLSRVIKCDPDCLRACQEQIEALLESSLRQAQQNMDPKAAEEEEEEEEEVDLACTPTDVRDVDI
cdk1/cyclinB, sequence (P06493 whole entry, species assumed): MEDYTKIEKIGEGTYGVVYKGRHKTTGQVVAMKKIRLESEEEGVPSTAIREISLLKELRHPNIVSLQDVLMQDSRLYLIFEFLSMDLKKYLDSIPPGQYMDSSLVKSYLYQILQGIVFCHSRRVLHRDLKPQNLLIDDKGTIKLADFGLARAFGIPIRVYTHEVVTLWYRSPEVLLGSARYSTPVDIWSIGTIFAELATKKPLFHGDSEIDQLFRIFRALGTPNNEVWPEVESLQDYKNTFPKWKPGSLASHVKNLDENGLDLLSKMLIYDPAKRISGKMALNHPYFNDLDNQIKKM
cdk1/cyclinB, sequence (P14635 whole entry partner, species assumed): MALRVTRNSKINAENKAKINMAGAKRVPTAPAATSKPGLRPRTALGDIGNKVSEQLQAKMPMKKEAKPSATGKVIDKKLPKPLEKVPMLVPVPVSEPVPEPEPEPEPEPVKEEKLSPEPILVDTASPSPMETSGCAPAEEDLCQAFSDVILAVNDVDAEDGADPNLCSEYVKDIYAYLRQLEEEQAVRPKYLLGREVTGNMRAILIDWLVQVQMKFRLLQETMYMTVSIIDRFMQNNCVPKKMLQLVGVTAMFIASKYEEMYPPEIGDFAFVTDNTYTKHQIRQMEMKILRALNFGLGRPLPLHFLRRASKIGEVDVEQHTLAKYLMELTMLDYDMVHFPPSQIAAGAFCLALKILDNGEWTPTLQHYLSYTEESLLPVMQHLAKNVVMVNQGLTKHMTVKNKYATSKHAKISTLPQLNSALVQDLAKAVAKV
T1 sequence (P11362 478-767 limits assumed): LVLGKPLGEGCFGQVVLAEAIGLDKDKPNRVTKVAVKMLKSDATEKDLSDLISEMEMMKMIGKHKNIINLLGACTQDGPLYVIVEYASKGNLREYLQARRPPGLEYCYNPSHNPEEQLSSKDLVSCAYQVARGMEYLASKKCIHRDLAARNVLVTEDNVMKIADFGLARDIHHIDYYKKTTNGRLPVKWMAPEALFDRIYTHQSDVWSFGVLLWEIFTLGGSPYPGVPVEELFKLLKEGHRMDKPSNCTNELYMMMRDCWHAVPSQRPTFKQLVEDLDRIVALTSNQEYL
T2 sequence (P05622 599-961 limits assumed): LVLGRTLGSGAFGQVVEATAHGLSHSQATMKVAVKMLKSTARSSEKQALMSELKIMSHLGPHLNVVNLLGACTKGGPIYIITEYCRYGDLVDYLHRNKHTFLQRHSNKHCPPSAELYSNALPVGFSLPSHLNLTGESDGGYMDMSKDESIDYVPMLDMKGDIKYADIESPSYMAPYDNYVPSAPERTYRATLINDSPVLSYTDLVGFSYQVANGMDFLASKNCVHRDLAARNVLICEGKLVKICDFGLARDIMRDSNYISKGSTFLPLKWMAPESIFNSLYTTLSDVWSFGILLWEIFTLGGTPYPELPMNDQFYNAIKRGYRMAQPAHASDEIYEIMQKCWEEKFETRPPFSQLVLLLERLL

inhibition at 50 µM ([1]; at 50 μM compound, read-out: Inhibition of Tyrosine Kinases: % Inhibition at 50 μM FGFr)	IC50 (cdk4/cyclinD)	IC50 (cdk1/cyclinB)	IC50 (cdk2/cyclinA)	melting point	inhibition at 50 µM ([2]; at 50 μM compound, read-out: Inhibition of Tyrosine Kinases: % Inhibition at 50 μM PDGFr)	IC50 (cdk2/cyclinE)	IC50 [1]	IC50 [2]	Compound
67.4%	45 nM	552 nM	54 nM	227 °C (dec.)	21.9%	110 nM	–	–	CC(C)(C)NC(=O)Nc1ccc2cnc(Nc3ccccc3)nc2n1 [Compound 45, 1-tert-Butyl-3-(2-phenylamino-pyrido[2,3-d]pyrimidin-7-yl)-urea]
–	300 nM	> 5000 nM	> 5000 nM	195 °C (dec.)	–	> 5000 nM	151 nM	33 nM	O=C(Nc1nc2nc(Nc3ccc(N4CCNCC4)cc3)ncc2cc1Br)NC1CCCCC1 [Compound 55, 1-[6-Bromo-2-(4-piperazin-1-yl-phenylamino)-pyrido[2,3-d]pyrimidin-7-yl]-3-cyclohexyl-urea]
–	17 nM	1450 nM	697 nM	169 to 175 °C	–	530 nM	1150 nM	536 nM	CN(C(=O)NC1CCCCC1)c1ccc2cnc(Nc3ccc(N4CCNCC4)cc3)nc2n1 [Compound 70, 3-Cyclohexyl-1-methyl-1-[2-(4-piperazin-1-yl-phenylamino)-pyrido[2,3-d]pyrimidin-7-yl]-urea]
